The kinase profiling compilation of Christmann-Franck et al. (2016)

How the values were obtained:
Assay in all cases: KINOMEscan competition binding
Settings in all cases: compound 10.0 µM
LTK (human) = LTK (human) (UniProt P29376)
MAP3K4 (human) = MAP3K4 (human) (UniProt Q9Y6R4)
MAP3K3 (human) = MAP3K3 (human) (UniProt Q99759)
ZAP70 (human) = ZAP70 (human) (UniProt P43403)
PDGFRB (human) = PDGFRB (human) (UniProt P09619)
DAPK2 (human) = DAPK2 (human) (UniProt Q9UIK4)
PKN2 (human) = PKN2 (human) (UniProt Q16513)
EPHB3 (human) = EPHB3 (human) (UniProt P54753)
MAP3K7 (human) = MAP3K7 (human) (UniProt O43318)
WEE1 (human) = WEE1 (human) (UniProt P30291)
DCLK2 (human) = DCLK2 (human) (UniProt Q8N568)
CDK18 (human) = CDK18 (human) (UniProt Q07002)
NEK2 (human) = NEK2 (human) (UniProt P51955)
RPS6KA4 KD1 (human) = RPS6KA4 KD1 (human) (UniProt O75676)
DDR2 (human) = DDR2 (human) (UniProt Q16832)
DCLK3 (human) = DCLK3 (human) (UniProt Q9C098)
EPHA6 (human) = EPHA6 (human) (UniProt Q9UF33)
EPHB1 (human) = EPHB1 (human) (UniProt P54762)
[1] = biological target: JAK1 JH2 pseudokinase (human) (UniProt P23458)
PHKG2 (human) = PHKG2 (human) (UniProt P15735)
RIOK2 (human) = RIOK2 (human) (UniProt Q9BVS4)
STK17A (human) = STK17A (human) (UniProt Q9UEE5)
FES (human) = FES (human) (UniProt P07332)
EPHA5 (human) = EPHA5 (human) (UniProt P54756)
PRKCQ (human) = PRKCQ (human) (UniProt Q04759)
MAP4K2 (human) = MAP4K2 (human) (UniProt Q12851)
INSRR (human) = INSRR (human) (UniProt P14616)
MARK2 (human) = MARK2 (human) (UniProt Q7KZI7)
FGR (human) = FGR (human) (UniProt P09769)
LIMK2 (human) = LIMK2 (human) (UniProt P53671)
ANKK1 (human) = ANKK1 (human) (UniProt Q8NFD2)
MAP3K1 (human) = MAP3K1 (human) (UniProt Q13233)
ROCK1 (human) = ROCK1 (human) (UniProt Q13464)
SIK3 (human) = SIK3 (human) (UniProt Q9Y2K2)
IRAK1 (human) = IRAK1 (human) (UniProt P51617)

Sequence of ZAP70 (human) (P43403 whole entry, looked up): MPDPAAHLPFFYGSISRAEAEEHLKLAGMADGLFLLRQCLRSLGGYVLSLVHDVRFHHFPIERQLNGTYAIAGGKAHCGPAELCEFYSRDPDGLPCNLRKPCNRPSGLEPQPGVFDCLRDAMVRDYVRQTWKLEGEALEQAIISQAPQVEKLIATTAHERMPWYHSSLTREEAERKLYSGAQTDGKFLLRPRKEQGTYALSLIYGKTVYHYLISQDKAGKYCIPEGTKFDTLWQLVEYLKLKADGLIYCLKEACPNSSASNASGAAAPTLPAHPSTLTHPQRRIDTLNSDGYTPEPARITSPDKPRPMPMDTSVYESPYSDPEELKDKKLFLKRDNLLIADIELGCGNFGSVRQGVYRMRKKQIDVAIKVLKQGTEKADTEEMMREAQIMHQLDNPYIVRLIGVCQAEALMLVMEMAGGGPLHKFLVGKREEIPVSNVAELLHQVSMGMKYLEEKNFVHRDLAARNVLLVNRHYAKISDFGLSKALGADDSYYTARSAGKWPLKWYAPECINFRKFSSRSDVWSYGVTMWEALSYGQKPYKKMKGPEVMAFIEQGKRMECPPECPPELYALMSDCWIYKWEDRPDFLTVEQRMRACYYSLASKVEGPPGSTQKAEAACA
Sequence of PRKCQ (human) (Q04759 whole entry, looked up): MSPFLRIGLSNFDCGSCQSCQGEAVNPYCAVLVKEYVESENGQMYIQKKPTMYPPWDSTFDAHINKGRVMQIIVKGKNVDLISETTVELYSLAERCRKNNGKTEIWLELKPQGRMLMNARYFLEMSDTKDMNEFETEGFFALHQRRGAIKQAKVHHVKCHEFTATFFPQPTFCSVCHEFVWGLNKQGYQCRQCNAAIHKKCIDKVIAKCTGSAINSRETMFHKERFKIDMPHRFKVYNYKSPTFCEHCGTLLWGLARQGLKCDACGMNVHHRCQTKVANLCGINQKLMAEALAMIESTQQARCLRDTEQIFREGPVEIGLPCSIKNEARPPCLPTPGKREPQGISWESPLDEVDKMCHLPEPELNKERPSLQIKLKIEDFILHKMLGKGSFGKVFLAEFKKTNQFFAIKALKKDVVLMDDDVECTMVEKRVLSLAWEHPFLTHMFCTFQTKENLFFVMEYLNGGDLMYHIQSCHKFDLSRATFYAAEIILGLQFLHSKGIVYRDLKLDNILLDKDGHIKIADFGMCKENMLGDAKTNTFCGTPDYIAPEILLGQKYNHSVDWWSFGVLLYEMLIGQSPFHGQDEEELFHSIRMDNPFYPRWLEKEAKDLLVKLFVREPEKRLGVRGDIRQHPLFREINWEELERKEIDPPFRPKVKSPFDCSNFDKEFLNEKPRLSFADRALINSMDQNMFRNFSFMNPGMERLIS
Sequence of RPS6KA4 KD1 (human) (O75676 whole entry, looked up): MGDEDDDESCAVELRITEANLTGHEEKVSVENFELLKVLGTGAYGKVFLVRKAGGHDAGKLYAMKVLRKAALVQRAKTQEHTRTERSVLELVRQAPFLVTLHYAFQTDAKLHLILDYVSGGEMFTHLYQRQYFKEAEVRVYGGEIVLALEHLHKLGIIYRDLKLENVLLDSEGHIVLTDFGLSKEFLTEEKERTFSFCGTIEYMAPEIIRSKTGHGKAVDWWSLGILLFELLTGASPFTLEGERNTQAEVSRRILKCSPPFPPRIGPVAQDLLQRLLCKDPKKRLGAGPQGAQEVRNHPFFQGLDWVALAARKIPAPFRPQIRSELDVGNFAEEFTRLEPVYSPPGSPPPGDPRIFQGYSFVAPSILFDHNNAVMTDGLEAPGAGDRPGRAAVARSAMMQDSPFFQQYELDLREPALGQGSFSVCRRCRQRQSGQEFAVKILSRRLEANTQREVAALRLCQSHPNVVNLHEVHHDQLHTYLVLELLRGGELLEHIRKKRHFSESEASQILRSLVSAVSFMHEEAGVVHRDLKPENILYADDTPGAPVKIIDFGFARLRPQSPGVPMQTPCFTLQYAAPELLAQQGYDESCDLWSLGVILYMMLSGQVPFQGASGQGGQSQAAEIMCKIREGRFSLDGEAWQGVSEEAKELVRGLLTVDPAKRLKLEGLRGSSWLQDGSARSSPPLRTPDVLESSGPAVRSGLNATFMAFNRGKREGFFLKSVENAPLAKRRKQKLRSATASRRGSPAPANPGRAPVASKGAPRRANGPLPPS
Sequence of FGR (human) (P09769 whole entry, looked up): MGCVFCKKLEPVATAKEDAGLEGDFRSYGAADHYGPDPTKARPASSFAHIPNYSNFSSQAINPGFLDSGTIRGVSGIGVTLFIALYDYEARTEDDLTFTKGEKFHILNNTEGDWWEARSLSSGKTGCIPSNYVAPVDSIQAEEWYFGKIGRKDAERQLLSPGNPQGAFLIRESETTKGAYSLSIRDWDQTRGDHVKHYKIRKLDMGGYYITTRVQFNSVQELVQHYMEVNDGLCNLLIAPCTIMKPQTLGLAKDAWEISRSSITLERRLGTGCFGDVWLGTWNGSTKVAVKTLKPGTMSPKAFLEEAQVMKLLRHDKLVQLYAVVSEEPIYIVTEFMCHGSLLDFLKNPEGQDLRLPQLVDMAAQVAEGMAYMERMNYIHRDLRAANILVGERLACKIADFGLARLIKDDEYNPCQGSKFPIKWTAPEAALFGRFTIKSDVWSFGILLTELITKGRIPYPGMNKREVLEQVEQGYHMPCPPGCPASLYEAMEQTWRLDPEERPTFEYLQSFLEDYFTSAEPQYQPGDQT
Sequence of DAPK2 (human) (Q9UIK4 whole entry, looked up): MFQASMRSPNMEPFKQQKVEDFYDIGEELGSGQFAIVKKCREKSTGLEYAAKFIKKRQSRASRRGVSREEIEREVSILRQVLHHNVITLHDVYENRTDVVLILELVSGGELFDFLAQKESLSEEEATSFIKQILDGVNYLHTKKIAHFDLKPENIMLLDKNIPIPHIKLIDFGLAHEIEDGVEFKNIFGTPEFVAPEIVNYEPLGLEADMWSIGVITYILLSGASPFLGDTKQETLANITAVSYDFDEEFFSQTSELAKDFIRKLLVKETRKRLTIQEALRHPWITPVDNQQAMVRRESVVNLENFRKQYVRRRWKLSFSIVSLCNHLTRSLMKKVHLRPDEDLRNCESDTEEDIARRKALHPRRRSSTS
Sequence of MAP4K2 (human) (Q12851 whole entry, looked up): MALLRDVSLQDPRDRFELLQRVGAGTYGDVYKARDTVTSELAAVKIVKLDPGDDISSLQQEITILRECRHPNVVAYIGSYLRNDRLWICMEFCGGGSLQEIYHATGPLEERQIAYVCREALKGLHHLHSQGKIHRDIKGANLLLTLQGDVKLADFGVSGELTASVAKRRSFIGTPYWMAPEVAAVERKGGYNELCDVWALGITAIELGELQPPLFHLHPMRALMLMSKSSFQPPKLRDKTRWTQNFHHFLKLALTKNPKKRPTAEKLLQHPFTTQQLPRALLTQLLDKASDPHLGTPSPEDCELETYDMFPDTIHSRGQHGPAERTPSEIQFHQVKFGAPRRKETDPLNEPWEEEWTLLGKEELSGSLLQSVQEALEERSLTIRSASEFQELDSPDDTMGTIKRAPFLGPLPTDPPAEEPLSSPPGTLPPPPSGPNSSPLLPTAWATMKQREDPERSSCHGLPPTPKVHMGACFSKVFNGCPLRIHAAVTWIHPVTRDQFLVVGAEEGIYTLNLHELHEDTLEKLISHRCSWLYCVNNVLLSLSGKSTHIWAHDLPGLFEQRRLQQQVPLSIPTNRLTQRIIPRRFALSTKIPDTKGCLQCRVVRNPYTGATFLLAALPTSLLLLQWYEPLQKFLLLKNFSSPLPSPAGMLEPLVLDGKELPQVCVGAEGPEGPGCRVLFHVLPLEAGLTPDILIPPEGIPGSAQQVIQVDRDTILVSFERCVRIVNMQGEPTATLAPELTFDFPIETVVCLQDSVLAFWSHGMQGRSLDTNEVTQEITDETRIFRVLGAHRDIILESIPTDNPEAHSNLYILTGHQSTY
Sequence of MAP3K7 (human) (O43318 whole entry, looked up): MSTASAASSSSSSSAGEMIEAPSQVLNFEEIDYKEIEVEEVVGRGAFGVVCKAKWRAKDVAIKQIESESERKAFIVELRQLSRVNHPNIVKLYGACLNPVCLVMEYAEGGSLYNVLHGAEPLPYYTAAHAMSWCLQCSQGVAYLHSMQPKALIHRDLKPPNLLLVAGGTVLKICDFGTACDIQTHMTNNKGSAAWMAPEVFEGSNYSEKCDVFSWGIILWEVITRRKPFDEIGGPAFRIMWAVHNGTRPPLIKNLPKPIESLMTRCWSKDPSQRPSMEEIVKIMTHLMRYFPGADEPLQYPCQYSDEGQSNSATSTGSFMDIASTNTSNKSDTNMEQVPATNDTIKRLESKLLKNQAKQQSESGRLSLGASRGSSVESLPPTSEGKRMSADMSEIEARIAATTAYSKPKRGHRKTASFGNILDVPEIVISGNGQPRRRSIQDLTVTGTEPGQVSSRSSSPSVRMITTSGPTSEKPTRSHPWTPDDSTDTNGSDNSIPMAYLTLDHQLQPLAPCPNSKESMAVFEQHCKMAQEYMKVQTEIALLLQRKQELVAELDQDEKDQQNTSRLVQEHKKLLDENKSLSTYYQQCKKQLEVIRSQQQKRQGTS
Sequence of NEK2 (human) (P51955 whole entry, looked up): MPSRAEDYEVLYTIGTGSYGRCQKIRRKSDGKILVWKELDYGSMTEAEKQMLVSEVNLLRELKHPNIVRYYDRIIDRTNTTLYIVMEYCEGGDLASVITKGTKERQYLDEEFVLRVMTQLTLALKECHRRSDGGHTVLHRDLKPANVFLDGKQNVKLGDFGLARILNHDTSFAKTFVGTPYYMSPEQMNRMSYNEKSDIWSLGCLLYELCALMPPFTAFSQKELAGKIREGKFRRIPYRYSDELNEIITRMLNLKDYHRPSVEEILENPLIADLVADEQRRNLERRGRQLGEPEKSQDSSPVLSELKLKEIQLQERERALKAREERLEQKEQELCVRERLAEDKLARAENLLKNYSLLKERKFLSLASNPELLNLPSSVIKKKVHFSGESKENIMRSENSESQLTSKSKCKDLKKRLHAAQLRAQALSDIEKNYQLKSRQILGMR

With `Cc1n[nH]c2ccc(-c3cncc(OC[C@@H](N)Cc4c[nH]c5ccccc45)c3)cc12` the kinase still bound, per cent of control (LTK (human)) was 100%, the kinase still bound, per cent of control (MAP3K4 (human)) was 100% and the kinase still bound, per cent of control (MAP3K3 (human)) was 29%. It also gave a kinase still bound, per cent of control (ZAP70 (human)) of 100%, a kinase still bound, per cent of control (PDGFRB (human)) of 28% and a kinase still bound, per cent of control (DAPK2 (human)) of 1.3%. For the same compound, the kinase still bound, per cent of control (PKN2 (human)) was 2.4%, the kinase still bound, per cent of control (EPHB3 (human)) was 100% and the kinase still bound, per cent of control (MAP3K7 (human)) was 3.2%. For the same compound, the kinase still bound, per cent of control (WEE1 (human)) was 100%, the kinase still bound, per cent of control (DCLK2 (human)) was 100% and the kinase still bound, per cent of control (CDK18 (human)) was 28%. It also gave a kinase still bound, per cent of control (NEK2 (human)) of 100%, a kinase still bound, per cent of control (RPS6KA4 KD1 (human)) of 100% and a kinase still bound, per cent of control (DDR2 (human)) of 100%. The kinase still bound, per cent of control (DCLK3 (human)) was 2%, the kinase still bound, per cent of control (EPHA6 (human)) was 100% and the kinase still bound, per cent of control (EPHB1 (human)) was 100%. For the same compound, the kinase still bound, per cent of control [1] was 100%, the kinase still bound, per cent of control (PHKG2 (human)) was 23% and the kinase still bound, per cent of control (RIOK2 (human)) was 6.2%. For the same compound, the kinase still bound, per cent of control (STK17A (human)) was 5.4%, the kinase still bound, per cent of control (FES (human)) was 100% and the kinase still bound, per cent of control (EPHA5 (human)) was 100%. It also gave a kinase still bound, per cent of control (PRKCQ (human)) of 0%, a kinase still bound, per cent of control (MAP4K2 (human)) of 8.8% and a kinase still bound, per cent of control (INSRR (human)) of 100%. For the same compound, the kinase still bound, per cent of control (MARK2 (human)) was 13%, the kinase still bound, per cent of control (FGR (human)) was 100% and the kinase still bound, per cent of control (LIMK2 (human)) was 100%. The kinase still bound, per cent of control (ANKK1 (human)) was 100%.

In the case of `CCN(CC)CCCCNc1ncc2c(n1)N(C)C(=O)N(c1c(Cl)c(OC)cc(OC)c1Cl)C2`, the kinase still bound, per cent of control (LTK (human)) is reported as 100%, the kinase still bound, per cent of control (MAP3K4 (human)) is reported as 5.3% and the kinase still bound, per cent of control (MAP3K1 (human)) is reported as 100%. For the same compound, the kinase still bound, per cent of control (ROCK1 (human)) was 100%, the kinase still bound, per cent of control (MAP3K3 (human)) was 3.8% and the kinase still bound, per cent of control (ZAP70 (human)) was 100%. It also gave a kinase still bound, per cent of control (PDGFRB (human)) of 21%, a kinase still bound, per cent of control (DAPK2 (human)) of 100% and a kinase still bound, per cent of control (PKN2 (human)) of 100%. It also gave a kinase still bound, per cent of control (EPHB3 (human)) of 100%, a kinase still bound, per cent of control (MAP3K7 (human)) of 100% and a kinase still bound, per cent of control (WEE1 (human)) of 100%. The kinase still bound, per cent of control (DCLK2 (human)) was 100%, the kinase still bound, per cent of control (CDK18 (human)) was 100% and the kinase still bound, per cent of control (NEK2 (human)) was 100%. For the same compound, the kinase still bound, per cent of control (RPS6KA4 KD1 (human)) was 100%, the kinase still bound, per cent of control (DDR2 (human)) was 30% and the kinase still bound, per cent of control (DCLK3 (human)) was 100%. The kinase still bound, per cent of control (EPHA6 (human)) was 100%, the kinase still bound, per cent of control (EPHB1 (human)) was 100% and the kinase still bound, per cent of control (SIK3 (human)) was 100%. For the same compound, the kinase still bound, per cent of control [1] was 100%, the kinase still bound, per cent of control (PHKG2 (human)) was 100% and the kinase still bound, per cent of control (RIOK2 (human)) was 100%. The kinase still bound, per cent of control (STK17A (human)) was 100%, the kinase still bound, per cent of control (FES (human)) was 100% and the kinase still bound, per cent of control (EPHA5 (human)) was 100%. It also gave a kinase still bound, per cent of control (IRAK1 (human)) of 100%, a kinase still bound, per cent of control (PRKCQ (human)) of 100% and a kinase still bound, per cent of control (MAP4K2 (human)) of 100%. For the same compound, the kinase still bound, per cent of control (INSRR (human)) was 100%, the kinase still bound, per cent of control (MARK2 (human)) was 100% and the kinase still bound, per cent of control (FGR (human)) was 100%. It also gave a kinase still bound, per cent of control (LIMK2 (human)) of 100% and a kinase still bound, per cent of control (ANKK1 (human)) of 100%.
